What was measured:
tubulin [1] = conditions: cited from earlier work
[2] = test system: cells expressing green fluorescent protein (GFP)-tagged α-tubulin; conditions: 30 second time period; cited from earlier work
tubulin [3] = assay: assembly of tubulin subunits into microtubules in vitro (light scattering); assay type: biochemical; conditions: for effect on tubulin polymerization: 25 μM
Protocol: (§1) FIG. 5 is a picture showing the fluorescence quenching of tubulin by Targetin. Panel A, quenching of tubulin fluorescence emission by Targetin in a concentration-dependent manner (▪) control, 10 μM (●), 20 μM (▴), 30 μM (▾), 50 μM ( ? ), 75 μM ( ? ) and 100 μM (♦) Panel B, double-reciprocal plot for Targetin binding to tubulin. […] Equivalent amount of solvent DMSO was used as a negative control.
(§2) However, at a four-fold concentration of Targetin (100 μM), it inhibited the rate and extent of tubulin polymerization by ˜17% (FIG. 5C).

[4] = oral 300 mg/kg body weight to 600 mg/kg; cited from earlier work
[5] = test system: melanoma, glioblastoma, ovarian, breast carcinoma, and prostate cancer cells; conditions: many cancer cell types; cited from earlier work
tubulin [6] = assay: tubulin-fluorescence quenching titration; assay type: binding; conditions: 10-100 μM, compared with parent noscapine
Protocol: as §1, §2

[7] = test system: variety of cancer cell types with varying degrees of folate receptor expression; assay: sulforhodamine B cellular proliferation assay; assay type: cell-based; conditions: irrespective of folate receptor status
Protocol: Our next goal was to determine whether differences in folate receptor overexpression affected cytotoxicity in response to Targetin. To this end, the ability of Targetin to inhibit cellular proliferation of a variety of cancer cell types with varying degrees of folate receptor expression was evaluated using a sulforhodamine B assay to determine total protein content (FIG. 7).

[8] = test system: porcine renal LLCPK-1 cells stably expressing GFP-tagged α-tubulin; assay: microtubule dynamics in living cells (plus ends of GFP-tagged α-tubulin MTs); assay type: cell-based; conditions: for Rate, Growing: individual microtubules in interphase cells
Protocol: FIG. 6 is a series of photographs showing how Targetin increases the pause-time of cellular MTs. A gallery of video frames, 6 seconds apart, of plus ends of several microtubules in control and Targetin treated cells.
To determine if Targetin affects MT dynamics in living cells, the life history of the plus ends of Targetin-treated cellular MTs was evaluated, resolvable individually at the cell periphery of porcine renal LLCPK-1 cells stably expressing green fluorescent protein (GFP)-tagged α-tubulin. These cells were treated either with Targetin in DMSO or DMSO alone. […] As expected in control cells, MTs alternated between phases of growth and shortening interrupted occasionally by a state of attenuated dynamic activity (pause), determined by noting the position of the plus ends over time. The control panels show different positions of MT plus ends in a 24 second time period (arrows represent fixed pixel position for reference).

[9] = test system: FR-α overexpressing cancer cells (SK-OV3 human ovarian carcinoma cells, U87 glioblastoma cells); assay: cell viability using Trypan blue (adherent live cells), 48 hours; assay type: cell-based
Protocol: Live cells remain adherent and exclude Trypan blue (although a few late stage dying cells that remain adherent are Trypan blue-positive, and are not counted as live adherent). The numbers of adherent live cells are quantified in panels B and D respectively.
An equal number of two types of cells, (SK-OV3 human ovarian carcinoma cells and U87 glioblastoma cells) were plated in 15 tissue culture dishes. Plates were divided into five groups of triplicates.
FIGS. 8A & B show phase images and quantification of cell viability using Trypan blue in SK-OV3 cells. FIGS. 8C & D show parallel data for human glioblastoma U87 cells. Data for two other FR-α cell lines are similar (not shown).

folate receptor = molecular target: T1, folate receptor (Homo sapiens, UniProt P15328); conditions: KB-31 cells, 3H-folic acid; cited from earlier work
T1 construct: determined in cultured KB-31 cells (nasopharyngeal epidermal carcinoma cell line) overexpressing the folate receptor using ^3H-folic acid; endogenous in cells; host or cells: KB-31 cells
T1 sequence (P15328 25-234): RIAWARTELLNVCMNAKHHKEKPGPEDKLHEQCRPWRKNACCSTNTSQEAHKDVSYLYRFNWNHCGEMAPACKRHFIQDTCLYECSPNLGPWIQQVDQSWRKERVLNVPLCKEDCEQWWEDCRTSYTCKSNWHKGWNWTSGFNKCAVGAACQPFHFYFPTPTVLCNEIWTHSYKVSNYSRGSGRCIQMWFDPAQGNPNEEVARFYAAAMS

COc1ccc2c(c1OC)C(=O)O[C@@H]2[C@H]1c2c(cc3c(c2OC)OCO3)CCN1C [Noscapine]
apparent stoichiometry of binding to tubulin (tubulin [1]): 0.95±0.02 noscapine molecule per tubulin dimer subunit | MT dynamics (position of plus ends) [2]: suppressed MT dynamics | effect on tubulin polymerization (tubulin [3]): did not inhibit tubulin polymerization | drug bioavailability on doubling the oral dose [4]: did not increase | effect on cell cycle and cell death [5]: brief mitotic pause followed by extensive apoptosis

Noscapine-folate [Targetin]
tubulin binding activity (quenching of tubulin fluorescence) (tubulin [6]): does retain the tubulin binding activity | potency in inhibiting cellular proliferation relative to noscapine [7]: about 3 fold | effect on tubulin polymerization (tubulin [3]): did not inhibit tubulin polymerization | inhibition of the rate and extent of tubulin polymerization (tubulin [3]; 100 μM): ~17% | Average pause ([8]; Targetin 5 μM): 10.25 ± 1.25 s | Dynamicity ([8]; Targetin 5 μM): 4.52 ± 1.21 μm/min | Percent of total time, Attenuation ([8]; Targetin 5 μM): 32.5% | Percent of total time, Growing ([8]; Targetin 5 μM): 35.2% | Percent of total time, Shortening ([8]; Targetin 5 μM): 28.5% | Rate, Shortening ([8]; Targetin 5 μM): 11.78 ± 1.21 μm/min | Transition frequency, Catastrophe ([8]; Targetin 5 μM): 0.079 ± 0.07 s⁻¹ | Transition frequency, Rescue ([8]; Targetin 5 μM): 0.07 ± 0.012 s⁻¹ | Rate, Growing ([8]; Targetin 5 μM): 8.72 ± 1.32 μm/min | Average pause ([8]; Targetin 10 μM): 14.52 ± 2.36 s | Dynamicity ([8]; Targetin 10 μM): 2.75 ± 1.05 μm/min | Percent of total time, Attenuation ([8]; Targetin 10 μM): 44.8% | Percent of total time, Growing ([8]; Targetin 10 μM): 24.3% | Percent of total time, Shortening ([8]; Targetin 10 μM): 20.1% | Rate, Shortening ([8]; Targetin 10 μM): 9.92 ± 1.25 μm/min | Transition frequency, Catastrophe ([8]; Targetin 10 μM): 0.072 ± 0.05 s⁻¹ | Transition frequency, Rescue ([8]; Targetin 10 μM): 0.059 ± 0.019 s⁻¹ | Rate, Growing ([8]; Targetin 10 μM): 7.15 ± 0.56 μm/min | MT-binding and MT dynamics attenuating activity relative to noscapine ([8]; summary statement): ~3 fold | effectiveness compared with noscapine (adherent live cells) ([9]; 10 μM Targetin vs 25 μM noscapine, FR-α overexpressing cell lines): significantly more effective than noscapine | effect of free folic acid on Targetin toxicity ([9]; 50 μM folic acid + 10 μM Targetin, FR-α overexpressing cancer cells): free folic acid mitigates the Targetin toxicity

Nc1nc(O)c2nc(CNc3ccc(C(=O)N[C@@H](CCC(=O)O)C(=O)O)cc3)cnc2n1 [folic acid]
in vitro binding affinity (folate receptor): 41 nmol/L
